Like-named read-outs stand apart in the source and are kept apart here.
Experiments:
5-HT3 receptor = biological target: T1, 5-HT3 receptor (Rattus norvegicus, UniProt P35563); assay: 5-HT3 receptor binding experiment (3H-quipazine binding assay, rat cerebral cortical membrane fraction); settings: for inhibition at 0.01 µM / inhibition at 0.001 µM: read-out: Binding inhibitory rate
T1 sequence (P35563 24-483): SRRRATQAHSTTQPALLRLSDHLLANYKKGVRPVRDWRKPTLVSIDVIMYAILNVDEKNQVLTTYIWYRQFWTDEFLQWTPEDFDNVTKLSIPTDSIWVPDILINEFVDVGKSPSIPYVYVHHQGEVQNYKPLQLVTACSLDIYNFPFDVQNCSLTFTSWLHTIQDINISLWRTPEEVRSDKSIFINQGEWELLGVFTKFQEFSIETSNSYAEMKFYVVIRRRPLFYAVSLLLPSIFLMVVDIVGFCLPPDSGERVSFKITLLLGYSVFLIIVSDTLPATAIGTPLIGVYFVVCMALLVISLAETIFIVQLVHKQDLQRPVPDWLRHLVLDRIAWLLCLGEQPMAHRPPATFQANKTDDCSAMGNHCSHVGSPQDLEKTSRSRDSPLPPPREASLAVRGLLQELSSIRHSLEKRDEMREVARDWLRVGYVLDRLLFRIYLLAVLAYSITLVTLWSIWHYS

female beagles = assay: Antiemetic effects against cisplatin-induced vomiting; type: in vivo, female beagles (dog); settings: for Number of vomits / Latency of the first vomit: test compound 0.1 mg/kg i.v. 75 minutes after cisplatin 3 mg/kg i.v.; for Number of vomits: 4 hours observation; for Vomiting after cisplatin (result in words): two beagles, test compound 0.1 mg/kg i.v., cisplatin 3 mg/kg i.v.
Source text: Using four 9-13 month-old female beagles having a body weight of 7.5-9.6 Kg (furnished by Toyo Research Animal Inc.), the antiemetic effects of certain compounds of the present invention were investigated.
As test compounds, the compounds obtained in Examples 8 and 9, respectively, were individually weighed and dissolved in 0.01N hydrochloric acid. The resultant solutions were neutralized to about pH 7 with 0.01N NaOH to provide aqueous solutions for administration. Cisplatin ("Briplatin Injection", product of Bristol-Myers Co.) was used as an emetic.
To see the emetic effects of cisplatin to each animal, vomiting after the administration of cisplatin was first observed (control group). Next, seven weeks later, each group consisting of two beagles was intravenously administered with 0.1 mg/kg (0.2 ml/kg) of the compound of Example 8 or 9 upon an elapsed time of 75 minutes after the administration of cisplatin, and the group administered with the compound of Example 8 and the group administered with the compound of Example 9 were both observed for vomit. Cisplatin was intravenously administered at the dosage of 3 mg/kg (in the volume of 6 ml/kg) and the administration rate of 10 ml/min.
The laboratory animals were fasted for about 24 hours prior to administration of cisplatin and, one hour after the administration of cisplatin, were fed. Vomit was determined depending on whether vomitus was discharged out of the mouth. With respect to the number of vomits and their latency, observation was continued for 4 hours after the administration of cisplatin.
Based on the observation, the latency of the first vomit of and the number of vomits of each laboratory animal after the administration of cisplatin are shown in Table 3-A and Table 3-B.

Compound | IC50 (5-HT3 receptor) | further results
O=C(NC1CN2CCC1CC2)c1cnn2ccccc12 (stereo not drawn) [Example 1, N-(1-azabicyclo[2.2.2]oct-3-yl)-3-pyrazolo[1,5-a]pyridinecarboxamide] | 41.1 nM | inhibition at 0.01 µM (5-HT3 receptor): 50%
Cc1cccc2c(C(=O)N[C@H]3CN4CCC3CC4)cnn12 [Example 11, (R)-(+)-N-(1-azabicyclo[2.2.2]oct-3-yl)-7-methylpyrazolo[1,5-a]pyridine-3-carboxamide] | 44.9 nM | –
Cc1nn2c(C)cccc2c1C(=O)NC1CN2CCC1CC2 (stereo not drawn) [Example 19] | 5.2 nM | –
Cc1ccn2ncc(C(=O)NC3CN4CCC3CC4)c2c1 (stereo not drawn) [Example 2, 5-methyl-N-(1-azabicyclo[2.2.2]oct-3-yl)-3-pyrazolo[1,5-a]pyridinecarboxamide] | 43.2 nM | inhibition at 0.01 µM (5-HT3 receptor): 31%
Cc1cccc2c(C(=O)N[C@H]3C[C@H]4CC[C@@H](C3)N4C)cnn12 [Example 8, endo-8-methyl-8-azabicyclo[3.2.1]-oct-3-yl 7-methyl-pyrazolo[1,5-a]pyridine-3-carboxamide] | 19.1 nM | Number of vomits (female beagles; Dog No. 1): 0 times; Number of vomits (female beagles; Dog No. 2): 0 times; Vomiting after cisplatin (result in words) (female beagles): No vomit
Cc1ccn2ncc(C(=O)O)c2c1 [Control* 4, 5Methylpyrazolo[1,5a]pyridine3-carboxylic acid, reference compound] | > 10000 nM | –
Cc1nn2ccccc2c1C(=O)O [Control* 2, 2Methylpyrazolo[1,5a]pyridine3-carboxylic acid, reference compound] | > 10000 nM | –
Cc1cccc2c(C(=O)O[C@H]3C[C@H]4CC[C@@H](C3)N4C)cnn12 [Example 7, endo-8-methyl-8-azabicyclo[3.2.1]-oct-3-yl 7-methylpyrazolo[1,5-a]pyridine-3-carboxylate] | 1 nM | inhibition at 0.001 µM (5-HT3 receptor): 43%; inhibition at 0.01 µM (5-HT3 receptor): 77%
Cc1nn2c(C)cccc2c1C(=O)O [Control* 7, 2,7Dimethylpyrazolo[1,5a]pyridine3-carboxylic acid, reference compound] | > 10000 nM | –
Cc1cccc2c(C(=O)O)cnn12 [Control* 6, 7Methylpyrazolo[1,5a]pyridine3-carboxylic acid, reference compound] | > 10000 nM | –
Cc1cccc2c(C(=O)N[C@@H]3CN4CCC3CC4)cnn12 [Example 10, (S)-(-)-N-(1-azabicyclo[2.2.2]oct-3-yl)-7-methylpyrazolo[1,5-a]pyridine-3-carboxamide] | 0.28 nM | –
Cc1nn2ccccc2c1C(=O)NC1CN2CCC1CC2 (stereo not drawn) [Example 5, 2-methyl-N-(1-azabicyclo[2.2.2]oct-3-yl)-3-pyrazolo[1,5-a]pyridinecarboxamide] | 18.9 nM | inhibition at 0.01 µM (5-HT3 receptor): 50%
Cc1cccc2c(C(=O)N[C@H]3C[C@H]4CCC[C@@H](C3)N4C)cnn12 [Example 9, endo-9-methyl-9-azabicyclo[3.3.1]-non-3-yl 7-methyl-pyrazolo[1,5-a]pyridine-3-carboxamide] | – | Latency of the first vomit (female beagles; Dog No. 3): 132 min; Number of vomits (female beagles; Dog No. 3): 12 times; Latency of the first vomit (female beagles; Dog No. 4): 173 min; Vomiting after cisplatin (result in words) (female beagles): number of vomits therefore decreased in one case; IC50 (5-HT3 receptor; read-out: IC50 value): 53.7 nM
Cc1cccc2c(C(=O)NC3CN4CCC3CC4)cnn12 (stereo not drawn) [Example 4, 7-methyl-N-(1-azabicyclo[2.2.2]oct-3-yl)-3-pyrazolo[1,5-a]pyridinecarboxamide] | 7.2 nM | inhibition at 0.01 µM (5-HT3 receptor): 82%
Cc1ccn2ncc(C(=O)O[C@H]3C[C@H]4CC[C@@H](C3)N4C)c2c1 [Example 17, endo-8-methyl-8-azabicyclo[3.2.1]-oct-3-yl 5-methylpyrazolo[1,5-a]pyridine-3-carboxylate] | 25.8 nM | –
CN1[C@@H]2CC[C@H]1C[C@@H](OC(=O)c1cnn3ccccc13)C2 [Example 6, endo-8-methyl-8-azabicyclo[3.2.1]-oct-3-yl pyrazolo[1,5-a]pyridine-3-carboxylate] | 16.5 nM | inhibition at 0.001 µM (5-HT3 receptor): 9%; inhibition at 0.01 µM (5-HT3 receptor): 37%
Cc1ccc2c(C(=O)O)cnn2c1 [Control* 5, 6Methylpyrazolo[1,5a]pyridine3-carboxylic acid, reference compound] | > 10000 nM | –
O=C(O)c1cnn2ccccc12 [Control* 1, Pyrazolo[1,5a]pyridine3-carboxylic acid, reference compound] | > 10000 nM | –
Cc1nn2ccccc2c1C(=O)O[C@H]1C[C@H]2CC[C@@H](C1)N2C [Example 15, endo-8-methyl-8-azabicyclo[3.2.1]-oct-3-yl 2-methyl-pyrazolo[1,5-a]pyridine-3-carboxylate] | 2.7 nM | –
Cc1cccn2ncc(C(=O)O)c12 [Control* 3, 4Methylpyrazolo[1,5a]pyridine3-carboxylic acid, reference compound] | > 10000 nM | –
Cc1cccn2ncc(C(=O)O[C@H]3C[C@H]4CC[C@@H](C3)N4C)c12 [Example 16, endo-8-methyl-8-azabicyclo[3.2.1]-oct-3-yl 4-methyl-pyrazolo[1,5-a]pyridine-3-carboxylate] | 3.5 nM | –

Reference: patent US5200415A, “Pyrazolo[1,5-a]pyridine-3-carboxylic acid derivatives and their pharmaceutical use” (Asahi Kasei Kogyo Kabushiki Kaisha, priority 1990, dated 1993)
